Earlier results on four compounds are cited in patent publication US20030207327A1, “Coisogenic eukaryotic cell collections” (priority 2001, published 2003).

Data set [1] concerns the target T1, TPMT (thiopurine S-methyltransferase) (Homo sapiens, UniProt P51580, R215H).
T1 sequence (P51580 1-245 R215H): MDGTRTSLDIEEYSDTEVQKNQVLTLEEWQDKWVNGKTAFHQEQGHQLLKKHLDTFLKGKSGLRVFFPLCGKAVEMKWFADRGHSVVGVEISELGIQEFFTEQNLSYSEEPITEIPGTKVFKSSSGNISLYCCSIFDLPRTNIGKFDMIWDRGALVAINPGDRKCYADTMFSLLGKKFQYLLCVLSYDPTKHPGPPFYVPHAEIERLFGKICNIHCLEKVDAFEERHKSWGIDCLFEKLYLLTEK
The conditions noted are these: TPMT variant G644A, Arg215His; OMIM 187680.

For data set [2], the target named is T2, TPMT (thiopurine S-methyltransferase) (Homo sapiens, UniProt P51580, A154T).
T2 sequence (P51580 1-245 A154T): T1 sequence (P51580 1-245 R215H) with A154T, H215R
The conditions noted are these: TPMT variant G460A, Ala154Thr; OMIM 187680.

For data set [3], the target named is T3, TPMT (thiopurine S-methyltransferase) (Homo sapiens, UniProt P51580, Y240C).
T3 sequence (P51580 1-245 Y240C): T1 sequence (P51580 1-245 R215H) with H215R, Y240C
The following applies: TPMT variant A719G, Tyr240Cys; OMIM 187680.

Data set [4] concerns the target T4, TPMT (thiopurine S-methyltransferase) (Homo sapiens, UniProt P51580, A80P).
T4 sequence (P51580 1-245 A80P): T1 sequence (P51580 1-245 R215H) with A80P, H215R
The following applies: TPMT variant G238C, Ala80Pro; OMIM 187680.

For data set [5], the system named is CYP2D6. The conditions noted are these: protein variant Gly169Ter; poor drug metabolizer; OMIM 124030.
Data set [6] concerns the target ABCB1 (MDR1, P-glycoprotein) (Homo sapiens, UniProt P08183, G185V).
The subject of data set [7] is beta tubulin (Isoform M40).

SMILES strings stand for the structures. Residue numbers refer to the chain shown, from its start. Where two headings read alike, the source gives them in different places.

ABCB1 (MDR1, P-glycoprotein), sequence (P08183 whole entry G185V, canonical isoform): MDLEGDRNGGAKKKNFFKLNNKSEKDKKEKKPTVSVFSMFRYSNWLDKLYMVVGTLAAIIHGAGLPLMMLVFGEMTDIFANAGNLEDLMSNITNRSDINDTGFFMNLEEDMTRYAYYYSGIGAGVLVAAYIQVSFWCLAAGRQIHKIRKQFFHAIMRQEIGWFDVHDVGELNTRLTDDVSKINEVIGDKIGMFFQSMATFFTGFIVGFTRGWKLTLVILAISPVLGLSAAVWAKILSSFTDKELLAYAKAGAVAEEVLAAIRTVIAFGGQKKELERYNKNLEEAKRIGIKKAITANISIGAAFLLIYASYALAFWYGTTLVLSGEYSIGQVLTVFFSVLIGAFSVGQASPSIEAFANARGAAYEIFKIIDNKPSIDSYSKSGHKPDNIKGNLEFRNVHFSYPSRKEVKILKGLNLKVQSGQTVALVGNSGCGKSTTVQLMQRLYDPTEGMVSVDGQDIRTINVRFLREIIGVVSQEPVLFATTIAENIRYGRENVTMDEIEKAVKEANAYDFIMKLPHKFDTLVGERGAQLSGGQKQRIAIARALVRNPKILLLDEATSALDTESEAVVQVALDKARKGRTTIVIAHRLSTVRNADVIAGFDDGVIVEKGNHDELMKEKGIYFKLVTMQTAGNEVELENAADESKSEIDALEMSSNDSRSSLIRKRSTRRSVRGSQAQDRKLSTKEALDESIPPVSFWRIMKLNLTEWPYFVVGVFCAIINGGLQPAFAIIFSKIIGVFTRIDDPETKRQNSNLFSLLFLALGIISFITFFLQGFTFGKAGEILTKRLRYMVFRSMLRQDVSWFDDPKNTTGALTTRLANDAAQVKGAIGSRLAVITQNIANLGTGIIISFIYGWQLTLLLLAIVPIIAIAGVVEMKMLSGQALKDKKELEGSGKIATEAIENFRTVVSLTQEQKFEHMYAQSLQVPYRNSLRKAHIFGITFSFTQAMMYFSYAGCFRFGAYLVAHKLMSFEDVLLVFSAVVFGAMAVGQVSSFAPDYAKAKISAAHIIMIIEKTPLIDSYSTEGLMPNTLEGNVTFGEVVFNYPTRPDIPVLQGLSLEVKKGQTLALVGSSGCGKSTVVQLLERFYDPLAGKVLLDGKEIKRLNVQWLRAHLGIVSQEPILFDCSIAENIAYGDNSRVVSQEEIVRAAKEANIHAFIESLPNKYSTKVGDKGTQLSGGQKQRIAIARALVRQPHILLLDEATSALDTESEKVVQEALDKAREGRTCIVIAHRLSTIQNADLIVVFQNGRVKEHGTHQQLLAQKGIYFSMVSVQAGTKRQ

Turning to `Sc1ncnc2nc[nH]c12` [6-mercaptopurine], the Phenotype result in data set [1], in data set [2], in data set [3] and in data set [4] was “sensitivity” each time.

Turning to `N=C(N)N1CCc2ccccc2C1` [Debrisoquine], the Phenotype entry in data set [5] is “Debrisoquine, poor”.

For the compound `COc1cc2c(c(OC)c1OC)-c1ccc(OC)c(=O)cc1[C@@H](NC(C)=O)CC2` [colchicine], the “Phenotype: colchicine resistance” value in data set [6] was “increased”.

With `CC(=O)O[C@H]1C(=O)[C@@]2(C)[C@H]([C@H](OC(=O)c3ccccc3)[C@]3(O)C[C@H](OC(=O)[C@H](O)[C@@H](NC(=O)c4ccccc4)c4ccccc4)C(C)=C1C3(C)C)[C@]1(OC(C)=O)CO[C@@H]1C[C@@H]2O` [paclitaxel], the “Phenotype (response to paclitaxel)” value in data set [7] (beta tubulin variant Ala364Thr (G1092A)) and in data set [7] (beta tubulin variant Phe270Val (T810G)) was “resistance” throughout.
